Test results published in patent US12649723B2, “Carbonohydrazonoyl dicyanide compounds comprising 2 or more aryl or heteroaryl connected via linker and use thereof” (KOREA INSTITUTE OF SCIENCE AND TECHNOLOGY, priority 2020, dated 2026).

Assays:
Tau-BiFC cells = test: Cell viability (cytotoxicity) in tau-BiFC cells, count of stained nuclei; format: cell-based; settings: Forskolin-only group = 100% cell viability; for Cell viability (% @10 μM): compound 10 μM; for Cell viability: compounds marked *: measured at 3 μM
In short: (§1)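 Aggregation was induced by 30 μM Forskolin co-applied with test compound for 48 h, with screening at 1, 3, 10 μM and dose-response at 0.03–30 μM. Nuclei were stained with Hoechst (2 μg/mL) and counted against Forskolin-only wells for cytotoxicity. Inhibition came from BiFC fluorescence relative to Forskolin-only versus untreated cells, with IC50 by nonlinear regression.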

tau protein = target: T1, tau protein (Homo sapiens, UniProt P10636); test: Tau-BiFC cell model: inhibition of tau protein aggregation; format: cell-based; settings: for remaining activity at 10 µM / remaining activity at 3 µM: 48 h, Forskolin-only group = 100% tau protein-aggregated state; for remaining activity at 10 µM: compound 10 μM, BiFC fluorescence, read-out: Response (% @10 μM); for IC50: Tau BiFC in cells, with Forskolin 30 μM, 48 hours; for remaining activity at 3 µM: compounds marked *: measured at 3 μM, read-out: Response
T1 construct: fused on or other part: Split fluorescent-protein halves for BiFC are fused to tau; In the published tau-BiFC line these are Venus VN173 and VC155
In short: as §1

[1] = Liver microsome stability; format: in vitro ADME, rat; settings: amount of substrate remaining; compound 1 μM, 30 minutes, 37° C., NADPH
Protocol: (§2) The stability of liver microsomes due to the compounds prepared according to Examples 1 to 175 was confirmed. Specifically, four types of liver microsomes (human, dog, rat, and mouse, each 0.25 mg/mL), a 0.1 M phosphate buffer solution (pH 7.4), and each of the compounds at a concentration of 1 μM were mixed and pre-cultured at 37° C. for 5 minutes and further cultured at 37° C. for 30 minutes together with an NADPH generation system solution added thereto. Thereafter, the reaction was terminated by adding an acetonitrile solution containing an internal standard material (chloropropamide) and centrifuged for 5 minutes (14,000 rpm, 4° C.), and then a supernatant was injected into an LC-MS/MS system for analysis of substrate drugs to thereby evaluate metabolic stability due to 8 types of compounds.
(§3) The amount of the substrate remaining after the reaction was analyzed using the Shimadzu Nexera XR system and TSQ Vantage (Thermo). In an HPLC column, Kinetex XB-C18 (2.1 mm×100 mm, particle size of 2.6 μm; Phenomenex, USA) was used, and mobile phases were (A) distilled water containing 0.1% formic acid and (B) acetonitrile containing 0.1% formic acid. Analyst software (version 1.6.3) and Xcalibur (version 1.6.1) were used for data analysis.

[2] = Liver microsome stability; format: in vitro ADME, mouse; settings: amount of substrate remaining; compound 1 μM, 30 minutes, 37° C., NADPH
Protocol: as §2, §3

CYP2C9 = target: T2, CYP2C9 (Homo sapiens, UniProt P11712); test: Inhibitory effect on CYP coenzyme activity, human liver microsomes; format: in vitro ADME; settings: compound 10 μM; human liver microsomes 0.25 mg/mL; substrate diclofenac; 15 minutes
T2 construct: human liver microsomes (0.25 mg/mL); from tissue; host or cells: human liver microsomes
Protocol: (§4) The inhibitory effects of the compounds prepared according to Examples 1 to 175 on CYP coenzyme activity were identified. Specifically, human liver microsomes (0.25 mg/mL), a 0.1 M phosphate buffer solution (pH 7.4), a substrate drug cocktail of five types of drug metabolism enzymes (50 μM phenacetin, 10 μM diclofenac, 100 μM S-mephenytoin, 5 μM dextromethorphan, and 2.5 μM midazolam), and the compound at a concentration of 0 μM or 10 μM were mixed and pre-cultured at 37° C. for 5 minutes, and then further cultured at 37° C. for 15 minutes together with an NADPH generation system solution added thereto. Thereafter, the reaction was terminated by adding an acetonitrile solution containing an internal standard material (terfenadine) and centrifuged for 5 minutes (14,000 rpm, 4° C.), and then a supernatant was injected into an LC-MS/MS system for simultaneous analysis of metabolites of the substrate drugs to thereby evaluate the inhibitory effects on drug metabolism.
(§5) Metabolites of each CYP coenzyme indicator drug generated through the reaction were analyzed using the Shimadzu Nexera XR system and TSQ Vantage (Thermo). In an HPLC column, Kinetex C18 (2.1 mm×100 mm, 2.6 μm, particle size; Phenomenex, USA) was used, and mobile phases were (A) distilled water containing 0.1% formic acid and (B) acetonitrile containing 0.1% formic acid, and a gradient program shown in Table 3 was applied thereto.
(§6) The generated metabolites were quantified using a multiple reaction monitoring (MRM) quantification mode, and Xcalibur (version 1.6.1) was used for data analysis. Inhibitory effects of the novel compound prepared according to the examples of the present invention on CYP coenzyme activity are shown in Table 4 below.

CYP2C19 = target: T3, CYP2C19 (Homo sapiens, UniProt P33261); test: as above; format: in vitro ADME; settings: compound 10 μM; human liver microsomes 0.25 mg/mL; substrate S-mephenytoin; 15 minutes
T3 construct: human liver microsomes (0.25 mg/mL); from tissue; host or cells: human liver microsomes
Protocol: as §4, §5, §6

CYP3A4 = target: T4, CYP3A4 (Homo sapiens, UniProt P08684); test: as above; format: in vitro ADME; settings: compound 10 μM; human liver microsomes 0.25 mg/mL; substrate midazolam; 15 minutes
T4 construct: human liver microsomes (0.25 mg/mL); from tissue; host or cells: human liver microsomes
Protocol: as §4, §5, §6

CYP2D6 = target: T5, CYP2D6 (Homo sapiens, UniProt P10635); test: as above; format: in vitro ADME; settings: compound 10 μM; human liver microsomes 0.25 mg/mL; substrate dextromethorphan; 15 minutes
T5 construct: human liver microsomes (0.25 mg/mL); from tissue; host or cells: human liver microsomes
Protocol: as §4, §5, §6

CYP1A2 = target: T6, CYP1A2 (Homo sapiens, UniProt P05177); test: as above; format: in vitro ADME; settings: compound 10 μM; human liver microsomes 0.25 mg/mL; substrate phenacetin; 15 minutes
T6 construct: human liver microsomes (0.25 mg/mL); from tissue; host or cells: human liver microsomes
T6 sequence (P05177 1-516): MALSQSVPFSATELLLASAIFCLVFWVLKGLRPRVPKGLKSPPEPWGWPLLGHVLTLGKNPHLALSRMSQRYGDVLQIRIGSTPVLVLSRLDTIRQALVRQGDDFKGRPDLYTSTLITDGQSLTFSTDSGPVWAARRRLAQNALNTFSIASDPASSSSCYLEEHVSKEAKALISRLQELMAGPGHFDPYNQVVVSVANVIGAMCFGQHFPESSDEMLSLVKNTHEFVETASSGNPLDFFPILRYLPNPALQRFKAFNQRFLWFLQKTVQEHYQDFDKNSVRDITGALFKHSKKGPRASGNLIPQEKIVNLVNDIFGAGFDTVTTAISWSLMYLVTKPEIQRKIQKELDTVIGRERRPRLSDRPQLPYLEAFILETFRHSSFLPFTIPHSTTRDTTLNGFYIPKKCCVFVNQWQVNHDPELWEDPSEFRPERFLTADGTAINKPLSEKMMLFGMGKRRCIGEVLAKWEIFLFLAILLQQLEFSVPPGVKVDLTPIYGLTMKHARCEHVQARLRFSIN
Protocol: as §4, §5, §6

[3] = Liver microsome stability; format: in vitro ADME, human; settings: amount of substrate remaining; compound 1 μM, 30 minutes, 37° C., NADPH
Protocol: as §2, §3

T3 sequence (P33261 whole entry): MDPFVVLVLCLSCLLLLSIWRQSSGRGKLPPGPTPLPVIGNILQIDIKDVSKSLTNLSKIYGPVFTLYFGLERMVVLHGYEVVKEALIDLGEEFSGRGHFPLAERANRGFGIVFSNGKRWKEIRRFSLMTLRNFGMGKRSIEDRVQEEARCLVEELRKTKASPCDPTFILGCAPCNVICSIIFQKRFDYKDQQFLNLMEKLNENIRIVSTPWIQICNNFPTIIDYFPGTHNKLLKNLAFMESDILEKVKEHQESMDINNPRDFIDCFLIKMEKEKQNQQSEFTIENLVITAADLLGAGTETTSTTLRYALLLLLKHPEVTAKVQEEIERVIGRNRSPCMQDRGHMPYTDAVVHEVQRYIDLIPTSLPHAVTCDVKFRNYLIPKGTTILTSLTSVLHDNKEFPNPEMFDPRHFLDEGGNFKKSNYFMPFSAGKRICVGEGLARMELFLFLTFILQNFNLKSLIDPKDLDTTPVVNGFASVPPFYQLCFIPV
T4 sequence (P08684 whole entry): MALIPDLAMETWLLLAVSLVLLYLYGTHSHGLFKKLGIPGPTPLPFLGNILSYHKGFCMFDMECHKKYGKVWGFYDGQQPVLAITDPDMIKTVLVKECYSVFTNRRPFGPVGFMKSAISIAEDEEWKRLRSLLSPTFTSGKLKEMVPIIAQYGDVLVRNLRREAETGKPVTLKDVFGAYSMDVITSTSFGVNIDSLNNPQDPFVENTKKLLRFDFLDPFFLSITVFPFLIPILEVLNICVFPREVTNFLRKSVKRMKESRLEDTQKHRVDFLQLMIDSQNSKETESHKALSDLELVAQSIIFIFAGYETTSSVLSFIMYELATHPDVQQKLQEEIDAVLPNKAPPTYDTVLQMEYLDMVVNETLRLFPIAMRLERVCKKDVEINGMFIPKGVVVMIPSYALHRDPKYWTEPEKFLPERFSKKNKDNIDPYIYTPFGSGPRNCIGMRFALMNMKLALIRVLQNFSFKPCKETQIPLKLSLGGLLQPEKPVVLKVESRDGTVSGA
T1 sequence (P10636 2-441 isoform P10636-8 limits assumed): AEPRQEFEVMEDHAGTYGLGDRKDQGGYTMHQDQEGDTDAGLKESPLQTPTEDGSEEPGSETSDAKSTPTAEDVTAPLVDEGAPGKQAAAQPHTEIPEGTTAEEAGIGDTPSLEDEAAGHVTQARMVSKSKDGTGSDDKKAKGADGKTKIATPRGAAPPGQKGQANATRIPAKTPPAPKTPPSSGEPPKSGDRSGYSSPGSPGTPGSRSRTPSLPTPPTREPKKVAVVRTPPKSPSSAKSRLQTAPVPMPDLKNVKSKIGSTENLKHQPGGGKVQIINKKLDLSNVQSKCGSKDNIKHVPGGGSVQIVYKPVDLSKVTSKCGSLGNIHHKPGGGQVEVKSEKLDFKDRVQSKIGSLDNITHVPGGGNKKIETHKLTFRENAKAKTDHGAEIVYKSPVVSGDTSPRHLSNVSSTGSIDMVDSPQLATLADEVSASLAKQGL
T5 sequence (P10635 whole entry): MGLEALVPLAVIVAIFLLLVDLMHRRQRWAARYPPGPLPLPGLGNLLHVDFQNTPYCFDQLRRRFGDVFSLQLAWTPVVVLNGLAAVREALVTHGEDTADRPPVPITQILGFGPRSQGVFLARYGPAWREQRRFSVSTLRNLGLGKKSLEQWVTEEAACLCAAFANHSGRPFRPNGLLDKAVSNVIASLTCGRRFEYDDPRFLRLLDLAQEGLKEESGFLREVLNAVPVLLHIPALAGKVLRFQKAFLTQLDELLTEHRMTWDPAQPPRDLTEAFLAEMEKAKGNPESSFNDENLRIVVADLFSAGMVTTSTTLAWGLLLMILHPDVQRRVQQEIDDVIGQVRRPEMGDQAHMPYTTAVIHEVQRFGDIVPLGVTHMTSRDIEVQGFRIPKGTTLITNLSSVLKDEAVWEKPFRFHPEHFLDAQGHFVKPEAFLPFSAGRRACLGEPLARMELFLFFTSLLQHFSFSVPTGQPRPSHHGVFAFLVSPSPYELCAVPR
T2 sequence (P11712 whole entry): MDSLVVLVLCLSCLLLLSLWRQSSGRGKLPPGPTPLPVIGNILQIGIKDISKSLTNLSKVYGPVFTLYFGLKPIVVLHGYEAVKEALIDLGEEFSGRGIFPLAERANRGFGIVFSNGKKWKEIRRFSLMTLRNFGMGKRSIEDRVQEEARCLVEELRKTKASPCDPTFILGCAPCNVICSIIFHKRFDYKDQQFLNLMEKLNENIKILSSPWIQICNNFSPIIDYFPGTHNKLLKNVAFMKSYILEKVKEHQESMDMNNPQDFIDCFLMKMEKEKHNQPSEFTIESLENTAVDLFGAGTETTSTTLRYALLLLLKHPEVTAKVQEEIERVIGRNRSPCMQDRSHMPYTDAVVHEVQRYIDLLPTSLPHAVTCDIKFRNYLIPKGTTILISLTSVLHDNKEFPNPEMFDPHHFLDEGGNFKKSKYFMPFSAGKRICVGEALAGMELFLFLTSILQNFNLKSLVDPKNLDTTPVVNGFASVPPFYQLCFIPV

N#CC(C#N)=NNc1ccc(NC(=O)c2ccoc2)nc1 [Compound 110, (6-(furan-3-carboxamido)pyridin-3-yl)carbonohydrazonoyl dicyanide]
Cell viability (% @10 μM) (Tau-BiFC cells): 160.5% | remaining activity at 10 µM (tau protein): 0% | IC50 (tau protein): 790 nM | Rat (%) [1]: 81.8% | Mouse (%) [2]: 92.4% | CYP2C9 (CYP2C9): 77.1 | CYP2C19 (CYP2C19): 88.4 | CYP3A4 (CYP3A4): 98.9 | CYP2D6 (CYP2D6): 91.3 | CYP1A2 (CYP1A2): 88.3 | Human (%) [3]: 89.7%

Cc1cc(NN=C(C#N)C#N)ccc1OCc1ncccn1 [Compound 143, (3-methyl-4-(pyrimidin-2-ylmethoxy)phenyl)carbonohydrazonoyl dicyanide]
Cell viability (Tau-BiFC cells): 125% | remaining activity at 3 µM (tau protein): 11% | Rat (%) [1]: 57.6% | Mouse (%) [2]: 50% | CYP2C9 (CYP2C9): >100 | CYP2C19 (CYP2C19): >100 | CYP3A4 (CYP3A4): 90.3 | CYP2D6 (CYP2D6): >100 | CYP1A2 (CYP1A2): 95.9 | Human (%) [3]: 78.3%

COc1cc(NN=C(C#N)C#N)ccc1C(=O)Nc1cnc(C)cn1 [Compound 104, (3-methoxy-4-(5-methylpyrazin-2-ylcarbamoyl)phenyl)carbonohydrazonoyl dicyanide]
Cell viability (% @10 μM) (Tau-BiFC cells): 142% | remaining activity at 10 µM (tau protein): 0% | IC50 (tau protein): 260 nM | Rat (%) [1]: 87.5% | Mouse (%) [2]: 97.2% | CYP2C9 (CYP2C9): 48.6 | CYP2C19 (CYP2C19): 82.4 | CYP3A4 (CYP3A4): 66.1 | CYP2D6 (CYP2D6): >100 | CYP1A2 (CYP1A2): 78.4 | Human (%) [3]: 84.1%

Cc1cc(NN=C(C#N)C#N)ccc1OCc1cnccn1 [Compound 144, (3-methyl-4-(pyrazin-2-ylmethoxy)phenyl)carbonohydrazonoyl dicyanide]
Cell viability (Tau-BiFC cells): 111% | remaining activity at 3 µM (tau protein): -20% | IC50 (tau protein): 1280 nM | Rat (%) [1]: 92.4% | Mouse (%) [2]: 80.9% | CYP2C9 (CYP2C9): 24.5 | CYP2C19 (CYP2C19): >100 | CYP3A4 (CYP3A4): 89.2 | CYP2D6 (CYP2D6): >100 | CYP1A2 (CYP1A2): 37.7 | Human (%) [3]: 74.9%

Cc1cc(NN=C(C#N)C#N)ccc1OCc1cscn1 [Compound 152, (3-methyl-4-(thiazol-4-ylmethoxy)phenyl)carbonohydrazonoyl dicyanide]
Cell viability (Tau-BiFC cells): 117% | remaining activity at 3 µM (tau protein): -37% | IC50 (tau protein): 54 nM | Rat (%) [1]: 72.3% | Mouse (%) [2]: 56.6% | CYP2C9 (CYP2C9): 17.2 | CYP2C19 (CYP2C19): 95 | CYP3A4 (CYP3A4): >100 | CYP2D6 (CYP2D6): 96.1 | CYP1A2 (CYP1A2): 75.5 | Human (%) [3]: 73.2%

COc1cc(NN=C(C#N)C#N)ccc1OCc1ccc(C)cc1 [Compound 154, (3-methoxy-4-(4-methylbenzyloxy)phenyl)carbonohydrazonoyl dicyanide]
Cell viability (Tau-BiFC cells): 106% | remaining activity at 3 µM (tau protein): -52% | IC50 (tau protein): 32 nM | CYP2C9 (CYP2C9): 26.6 | CYP2C19 (CYP2C19): 76.3 | CYP3A4 (CYP3A4): 72.5 | CYP2D6 (CYP2D6): 81.7 | CYP1A2 (CYP1A2): 79.1

COc1cc(NN=C(C#N)C#N)ccc1OCc1cnc(C)cn1 [Compound 162, (3-methoxy-4-((5-methylpyrazin-2-yl)methoxy)phenyl)carbonohydrazonoyl dicyanide]
Cell viability (Tau-BiFC cells): 115% | remaining activity at 3 µM (tau protein): -25% | IC50 (tau protein): 49 nM | CYP2C9 (CYP2C9): 73.5 | CYP2C19 (CYP2C19): 75.9 | CYP3A4 (CYP3A4): 73.3 | CYP2D6 (CYP2D6): 70.3 | CYP1A2 (CYP1A2): 79.8

N#CC(C#N)=NNc1ccc(OCc2cccnc2)cc1 [Compound 124, (4-(pyridin-3-ylmethoxy)phenyl)carbonohydrazonoyl dicyanide]
Cell viability (% @10 μM) (Tau-BiFC cells): 140.9% | remaining activity at 10 µM (tau protein): 0% | IC50 (tau protein): 620 nM | CYP2C9 (CYP2C9): 4.4 | CYP2C19 (CYP2C19): 69.9 | CYP3A4 (CYP3A4): 37.5 | CYP2D6 (CYP2D6): 46.6 | CYP1A2 (CYP1A2): 23.4

N#CC(C#N)=NNc1ccc(OCc2cn[nH]c2)cc1 [Compound 137, (4-((1H-pyrazol-4-yl)methoxy)phenyl)carbonohydrazonoyl dicyanide]
Cell viability (Tau-BiFC cells): 129% | remaining activity at 3 µM (tau protein): 31% | CYP2C9 (CYP2C9): 37 | CYP2C19 (CYP2C19): >100 | CYP3A4 (CYP3A4): 84.8 | CYP2D6 (CYP2D6): >100 | CYP1A2 (CYP1A2): >100
